Measured values: patent publication US8633245B2, “PAI-1 inhibitor” (Institute of Medicinal Molecular Design, Inc., priority 2008, dated 2014)

Biological target: T1, recombinant human PAI-1 (Homo sapiens, UniProt P05121)
T1 construct: purchased Molecular Innovations, Inc
Assay: Test Example 1: human PAI-1 inhibitory activity (tPA fluorogenic substrate, pH 7.5 Tris buffer)
Assay type: biochemical
Settings: Tris buffer
Description: 50 mM Tris, 150 mM NaCl, 10 μg/ml BSA, 0.01% Tween80 (SIGMA-ALDRICH Corporation)

T1 sequence (P05121 24-402): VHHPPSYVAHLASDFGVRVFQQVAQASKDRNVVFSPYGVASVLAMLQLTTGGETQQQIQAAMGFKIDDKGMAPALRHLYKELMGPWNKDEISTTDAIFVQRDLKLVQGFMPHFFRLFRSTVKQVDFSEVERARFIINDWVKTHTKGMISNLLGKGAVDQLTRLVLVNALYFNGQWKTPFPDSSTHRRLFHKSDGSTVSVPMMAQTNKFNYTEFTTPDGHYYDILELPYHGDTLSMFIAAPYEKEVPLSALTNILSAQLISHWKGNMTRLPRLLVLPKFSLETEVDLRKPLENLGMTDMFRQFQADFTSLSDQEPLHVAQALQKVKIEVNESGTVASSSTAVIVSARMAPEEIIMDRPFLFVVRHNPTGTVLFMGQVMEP

SMILES | Inhibition Rate of PAI-1 Activity (%) (Compound Concentration 5 μM) | Inhibition Rate of PAI-1 Activity (%) (Compound Concentration 10 μM) | Inhibition Rate of PAI-1 Activity (%) (Compound Concentration 25 μM)
CC(C)(C)c1ccc(CN(C(=O)C(=O)O)c2ccc(-c3ccc(OC(F)(F)F)cc3)cc2)cc1 [Compound 133] | 80 | 92 | –
CSc1ccc(-c2ccc(N(Cc3ccc(C(C)(C)C)cc3)C(=O)C(=O)O)cc2)cc1 [Compound 134] | – | 14 | 75
CC(C)(C)c1ccc(CN(C(=O)C(=O)O)c2ccc(-c3ccc(Cl)cc3)cc2)cc1 [Compound 135] | – | 6 | 67
Cc1ccc(-c2ccc(OC(F)(F)F)cc2)cc1N(Cc1ccc(C(C)(C)C)cc1)C(=O)C(=O)O [Compound 136] | 16 | 47 | 79
Cc1ccc(-c2ccccc2)cc1N(Cc1ccc(C(C)(C)C)cc1)C(=O)C(=O)O [Compound 137] | – | 5 | 61
Cc1ccc(-c2cccc([N+](=O)[O-])c2)cc1N(Cc1ccc(C(C)(C)C)cc1)C(=O)C(=O)O [Compound 138] | – | 4 | 61
CC(C)(C)c1ccc(CN(C(=O)C(=O)O)c2cc(-c3ccccc3)cc(C(F)(F)F)c2)cc1 [Compound 140] | 6 | 31 | 77
Cc1ccc(-c2ccc(N(Cc3ccc(C(C)(C)C)cc3)C(=O)C(=O)O)cc2)cc1 [Compound 141] | – | 5 | 52
CC(C)(C)c1ccc(CN(C(=O)C(=O)O)c2ccc(-c3cccc([N+](=O)[O-])c3)cc2)cc1 [Compound 142] | – | 3 | 33
Cc1ccc(CN(C(=O)C(=O)O)c2ccc(-c3ccc(OC(F)(F)F)cc3)cc2)cc1 [Compound 143] | – | 1 | 22
O=C(O)C(=O)N(Cc1ccc(Cl)cc1Cl)c1ccc(-c2ccc(OC(F)(F)F)cc2)cc1 [Compound 144] | 3 | 22 | 76
CC(C)(C)c1ccc(CN(C(=O)C(=O)O)c2ccc(-c3ccc(C(F)(F)F)cc3)cc2)cc1 [Compound 145] | 7 | 35 | 74
Cc1cc(-c2ccc(OC(F)(F)F)cc2)ccc1N(Cc1ccc(C(C)(C)C)cc1)C(=O)C(=O)O [Compound 146] | 33 | 73 | 90
CC(C)(C)c1ccc(CN(C(=O)C(=O)O)c2ccccc2-c2ccc(OC(F)(F)F)cc2)cc1 [Compound 148] | 17 | 55 | 98
CC(C)(C)c1ccc(CN(C(=O)C(=O)O)c2ccc(-c3ccc(C#N)cc3)cc2)cc1 [Compound 149] | – | 3 | 34
CC(C)(C)c1ccc(CN(C(=O)C(=O)O)c2ccc(-c3ccc(OC(F)(F)F)cc3)cc2C(F)(F)F)cc1 [Compound 150] | 33 | 75 | 87
CC(C)(C)c1ccc(CN(C(=O)C(=O)O)c2ccc(-c3ccc(OC(F)(F)F)cc3)cc2OC(F)(F)F)cc1 [Compound 151] | 35 | 80 | 90
Cc1cc(-c2ccc(OC(F)(F)F)cc2)cc(C)c1N(Cc1ccc(C(C)(C)C)cc1)C(=O)C(=O)O [Compound 152] | 41 | 88 | 93
CC(C)(C)c1ccc(CN(C(=O)C(=O)O)c2ccccc2Oc2ccc(OC(F)(F)F)cc2)cc1 [Compound 153] | 20 | 54 | 93

SMILES | Inhibition Rate of PAI-1 Activity (%) (Compound Concentration 5 μM) | Inhibition Rate of PAI-1 Activity (%) (Compound Concentration 10 μM) | Inhibition Rate of PAI-1 Activity (%) (Compound Concentration 25 μM)
O=C(O)C(=O)N(Cc1ccccc1)c1ccc(Oc2ccc(OC(F)(F)F)cc2)cc1 [Compound 154] | – | 3 | 20
O=C(O)C(=O)N(Cc1ccc(F)cc1)c1ccc(-c2ccc(OC(F)(F)F)cc2)cc1 [Compound 155] | 7 | 15 | 38
CC(C)(C)c1ccc(-c2ccc(N(Cc3ccccc3)C(=O)C(=O)O)cc2)cc1 [Compound 156] | 10 | 25 | 67
CC(C)(C)c1ccc(N(C(=O)C(=O)O)c2ccccc2-c2ccc(OC(F)(F)F)cc2)cc1 [Compound 157] | 25 | 56 | 96
CC(C)(C)c1ccc(N(C(=O)C(=O)O)c2cccc(-c3ccc(OC(F)(F)F)cc3)c2)cc1 [Compound 158] | 26 | 61 | >99
O=C(O)C(=O)N(Cc1ccc(OC(F)(F)F)cc1)c1ccc(-c2ccc(OC(F)(F)F)cc2)cc1 [Compound 159] | 21 | 45 | 92
CSc1ccc(CN(C(=O)C(=O)O)c2ccc(-c3ccc(OC(F)(F)F)cc3)cc2)cc1 [Compound 160] | 14 | 26 | 68
O=C(O)C(=O)N(Cc1ccc(-c2ccccc2)cc1)c1ccc(-c2ccc(OC(F)(F)F)cc2)cc1 [Compound 161] | 27 | 62 | >99
CC(C)(C)c1ccc(-c2ccc(N(Cc3ccc(OC(F)(F)F)cc3)C(=O)C(=O)O)cc2)cc1 [Compound 162] | 30 | 74 | >99
CC(C)(C)c1ccc(CN(C(=O)C(=O)O)c2ccc(-c3ccc(C(C)(C)C)cc3)cc2)cc1 [Compound 163] | 37 | 84 | >99
CCCCc1ccc(-c2ccc(N(Cc3ccc(C(C)(C)C)cc3)C(=O)C(=O)O)cc2)cc1 [Compound 164] | 40 | 79 | 96
CC(C)(C)c1ccc(N(C(=O)C(=O)O)c2ccc(Oc3ccc(OC(F)(F)F)cc3)cc2)cc1 [Compound 165] | 27 | 64 | 96
CC(C)(C)c1ccc(CN(C(=O)C(=O)O)c2ccc(-c3ccc(OC(F)(F)F)cc3)c(C(F)(F)F)c2)cc1 [Compound 166] | 44 | 79 | 84
CCCCc1ccc(CN(C(=O)C(=O)O)c2ccc(-c3ccc(OC(F)(F)F)cc3)cc2)cc1 [Compound 167] | 37 | 75 | 87
CC(C)(C)c1ccc(CN(C(=O)C(=O)O)c2ccc(C(F)(F)F)cc2-c2ccc(OC(F)(F)F)cc2)cc1 [Compound 169] | 59 | 91 | 84
CC(C)(C)c1ccc(N(C(=O)C(=O)O)c2cccc(Oc3ccc(OC(F)(F)F)cc3)c2)cc1 [Compound 170] | 38 | 73 | 94
O=C(O)C(=O)N(Cc1c(Cl)cccc1Cl)c1ccc(-c2ccc(OC(F)(F)F)cc2)cc1 [Compound 171] | 22 | 44 | 81
CC(C)(C)c1ccc(CN(C(=O)C(=O)O)c2c(Cl)cc(-c3ccc(OC(F)(F)F)cc3)cc2Cl)cc1 [Compound 173] | 63 | 95 | 90
CC(C)(C)c1ccc(CN(C(=O)C(=O)O)c2cc(Oc3ccc(OC(F)(F)F)cc3)cc(C(F)(F)F)c2)cc1 [Compound 175] | 66 | 94 | 87
